PubChem BioAssay AID248 (DTP/NCI, 2004)
Values joined by “and” are separate entries in the source; they are usually repeats but may differ in a detail not shown here. Equal entries are not always repeated. Toxic doses and inconclusive results are not listed.

System: L1210 leukemia ip in BDF1 mice, survival T/C
Test: NCI In Vivo Anticancer Drug Screen. Data for tumor model L1210 Leukemia (intraperitoneal) in B6D2F1 (BDF1) mice
Conditions: endpoint: mean survival time, higher = longer survival
How it was run: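 Value reflects the ratio of survival in compound-treated mice to survival in vehicle-treated controls, with both groups carrying the same transplanted tumor.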

[1] = dose: 400.0 mg/kg/injection, schedule: Q01DX001 (ip), vehicle: saline
[2] = dose: 100.0 mg/kg/injection, schedule: Q01DX009 (ip), vehicle: Klucel (hydroxypropylcellulose) (HPC)
[3] = dose: 200.0 mg/kg/injection, schedule: Q01DX009 (ip), vehicle: Klucel (hydroxypropylcellulose) (HPC)
[4] = dose: 100.0 mg/kg/injection, schedule: Q04DX003 (ip), vehicle: Klucel (hydroxypropylcellulose) (HPC)
[5] = dose: 200.0 mg/kg/injection, schedule: Q04DX003 (ip), vehicle: Klucel (hydroxypropylcellulose) (HPC)
[6] = dose: 400.0 mg/kg/injection, schedule: Q04DX003 (ip), vehicle: Klucel (hydroxypropylcellulose) (HPC)
[7] = dose: 50.0 mg/kg/injection, schedule: Q01DX009 (ip), vehicle: Klucel (hydroxypropylcellulose) (HPC)
[8] = dose: 100.0 mg/kg/injection, schedule: Q04DX003 (ip), vehicle: saline with Tween-80
[9] = dose: 75.0 mg/kg/injection, schedule: Q01DX001 (ip), vehicle: other
[10] = dose: 150.0 mg/kg/injection, schedule: Q01DX001 (ip), vehicle: other

`Nc1nc(SSc2nc(N)nc3c2ncn3C2CC(O)C(CO)O2)c2ncn(C3CC(O)C(CO)O3)c2n1` (configuration not stated) was tested, and the T/C (dose: 1.0 mg/kg/injection, schedule: Q01DX009 (ip), vehicle: saline) was 212 % of control, the T/C (dose: 2.0 mg/kg/injection, schedule: Q01DX009 (ip), vehicle: saline) was 223 % of control and the T/C (dose: 75.0 mg/kg/injection, schedule: Q01DX001 (ip), vehicle: saline) was 100 % of control. For the same compound, the T/C (dose: 119.0 mg/kg/injection, schedule: Q01DX009 (ip), vehicle: saline) was 118 % of control, the T/C (dose: 178.0 mg/kg/injection, schedule: Q01DX009 (ip), vehicle: saline) was 116 % of control and the T/C (dose: 267.0 mg/kg/injection, schedule: Q01DX001 (ip), vehicle: saline) was 168 % of control. For the same compound, the T/C (dose: 267.0 mg/kg/injection, schedule: Q01DX009 (ip), vehicle: saline) was 88 % of control, the T/C [1] was 157 % of control and 178 % of control and the T/C (dose: 600.0 mg/kg/injection, schedule: Q01DX001 (ip), vehicle: saline) was 201 % of control. The T/C (dose: 31.3 micrograms/kg/injection, schedule: Q01DX009 (ip), vehicle: saline) was 96 % of control, the T/C (dose: 62.5 micrograms/kg/injection, schedule: Q01DX009 (ip), vehicle: saline) was 109 % of control and the T/C (dose: 125.0 micrograms/kg/injection, schedule: Q01DX009 (ip), vehicle: saline) was 112 % of control. For the same compound, the T/C (dose: 250.0 micrograms/kg/injection, schedule: Q01DX009 (ip), vehicle: saline) was 109 % of control.

With `COc1ccc(COC(=O)Nc2ccc(Br)cc2)cc1` the T/C [2] was 101 % of control, the T/C [3] was 98 % of control and the T/C (dose: 400.0 mg/kg/injection, schedule: Q01DX009 (ip), vehicle: Klucel (hydroxypropylcellulose) (HPC)) was 103 % of control.

In the case of `O=C(O)c1cc(Br)c(OCc2ccccc2)c(Br)c1`, the T/C (dose: 100.0 mg/kg/injection, schedule: Q01DX001 (ip), vehicle: saline with Tween-80) is reported as 101 % of control, the T/C (dose: 200.0 mg/kg/injection, schedule: Q01DX001 (ip), vehicle: saline with Tween-80) is reported as 104 % of control and the T/C (dose: 400.0 mg/kg/injection, schedule: Q01DX001 (ip), vehicle: saline with Tween-80) is reported as 104 % of control.

In the case of `CN(N=O)C(=O)NC1CC2CCC1C2` (configuration not stated), the T/C (dose: 4.0 mg/kg/injection, schedule: Q01DX001 (ip), vehicle: other) is reported as 104 % of control, the T/C (dose: 8.0 mg/kg/injection, schedule: Q01DX001 (ip), vehicle: other) is reported as 104 % of control and the T/C (dose: 16.0 mg/kg/injection, schedule: Q01DX001 (ip), vehicle: other) is reported as 108 % of control. For the same compound, the T/C (dose: 31.0 mg/kg/injection, schedule: Q01DX001 (ip), vehicle: other) was 104 % of control, the T/C (dose: 62.0 mg/kg/injection, schedule: Q01DX001 (ip), vehicle: other) was 100 % of control and the T/C (dose: 125.0 mg/kg/injection, schedule: Q01DX001 (ip), vehicle: other) was 104 % of control. For the same compound, the T/C (dose: 250.0 mg/kg/injection, schedule: Q01DX001 (ip), vehicle: other) was 112 % of control, the T/C (dose: 375.0 mg/kg/injection, schedule: Q01DX001 (ip), vehicle: other) was 112 % of control and the T/C (dose: 500.0 mg/kg/injection, schedule: Q01DX001 (ip), vehicle: other) was 118 % of control.

In the case of `CCN(CC)C(=S)[S][Sn]([S]C(=S)N(CC)CC)([c]1ccccc1)[c]1ccccc1`, the T/C (dose: 100.0 mg/kg/injection, schedule: Q01DX001 (ip), vehicle: other) is reported as 97 % of control, the T/C (dose: 200.0 mg/kg/injection, schedule: Q01DX001 (ip), vehicle: other) is reported as 104 % of control and the T/C (dose: 400.0 mg/kg/injection, schedule: Q01DX001 (ip), vehicle: other) is reported as 112 % of control.

For `Clc1ccccc1C(N=Cc1ccc[nH]1)(c1ccccc1)c1ccccc1`, the T/C [4] was 90 % of control, the T/C [5] was 93 % of control and the T/C [6] was 93 % of control.

For `O=C(O)COc1ccc(Cl)cc1CC(Cl)CCl` (configuration not stated), the T/C (dose: 25.0 mg/kg/injection, schedule: Q01DX009 (ip), vehicle: Klucel (hydroxypropylcellulose) (HPC)) was 97 % of control, the T/C [7] was 119 % of control and the T/C [2] was 97 % of control and 100 % of control.

In the case of `CCCCn1ccnc1`, the T/C (dose: 12.5 mg/kg/injection, schedule: Q04DX003 (ip), vehicle: saline) is reported as 105 % of control and the T/C (dose: 25.0 mg/kg/injection, schedule: Q04DX003 (ip), vehicle: saline) is reported as 103 % of control.

For `CC(=O)c1ccc(SC(=O)N(C)C)cc1`, the T/C [8] was 98 % of control, the T/C (dose: 200.0 mg/kg/injection, schedule: Q04DX003 (ip), vehicle: saline with Tween-80) was 93 % of control and the T/C (dose: 400.0 mg/kg/injection, schedule: Q04DX003 (ip), vehicle: saline with Tween-80) was 97 % of control.

`Cc1cc(CC(=O)c2ccccc2)[nH]c(=O)c1` was tested, and the T/C (dose: 100.0 mg/kg/injection, schedule: Q01DX001 (ip), vehicle: saline) was 103 % of control, the T/C (dose: 200.0 mg/kg/injection, schedule: Q01DX001 (ip), vehicle: saline) was 101 % of control and the T/C [1] was 101 % of control.

With `N#CC(OC(=O)c1ccccc1)c1ccccc1` (configuration not stated) the T/C [9] was 104 % of control and the T/C [10] was 105 % of control.

In the case of `CNC(=O)C1C(c2ccc(OC)cc2)C1c1ccc(OC)cc1` (configuration not stated), the T/C (dose: 12.5 mg/kg/injection, schedule: Q04DX002 (ip), vehicle: Klucel (hydroxypropylcellulose) (HPC)) is reported as 92 % of control, the T/C (dose: 25.0 mg/kg/injection, schedule: Q04DX002 (ip), vehicle: Klucel (hydroxypropylcellulose) (HPC)) is reported as 92 % of control and the T/C (dose: 50.0 mg/kg/injection, schedule: Q04DX002 (ip), vehicle: Klucel (hydroxypropylcellulose) (HPC)) is reported as 95 % of control.

For `COc1ccc(CC2=NCCN2)cc1`, the T/C (dose: 25.0 mg/kg/injection, schedule: Q04DX003 (ip), vehicle: saline with Tween-80) was 91 % of control, the T/C (dose: 50.0 mg/kg/injection, schedule: Q04DX003 (ip), vehicle: saline with Tween-80) was 93 % of control and the T/C [8] was 101 % of control and 89 % of control.

For `COc1ccc(SC2CCCCC2OS(C)(=O)=O)cc1` (configuration not stated), the T/C [7] was 107 % of control, the T/C (dose: 50.0 mg/kg/injection, schedule: Q04DX003 (ip), vehicle: Klucel (hydroxypropylcellulose) (HPC)) was 102 % of control and the T/C (dose: 100.0 mg/kg/injection, schedule: Q01DX001 (ip), vehicle: Klucel (hydroxypropylcellulose) (HPC)) was 106 % of control. The T/C [2] was 109 % of control, the T/C [4] was 106 % of control and the T/C (dose: 200.0 mg/kg/injection, schedule: Q01DX001 (ip), vehicle: Klucel (hydroxypropylcellulose) (HPC)) was 95 % of control. The T/C [3] was 98 % of control and the T/C [5] was 104 % of control.

With `Nc1ccc(/C=C2\C=Cc3ccccc32)cc1` the T/C (dose: 8.5 mg/kg/injection, schedule: Q01DX009 (ip), vehicle: saline) was 98 % of control, the T/C (dose: 17.0 mg/kg/injection, schedule: Q01DX001 (ip), vehicle: acetone) was 98 % of control and the T/C (dose: 17.0 mg/kg/injection, schedule: Q01DX009 (ip), vehicle: saline) was 97 % of control. The T/C (dose: 35.0 mg/kg/injection, schedule: Q01DX001 (ip), vehicle: acetone) was 105 % of control, the T/C (dose: 35.0 mg/kg/injection, schedule: Q01DX009 (ip), vehicle: saline) was 101 % of control and the T/C (dose: 100.0 mg/kg/injection, schedule: Q01DX001 (ip), vehicle: olive oil, sesame oil, peanut oil) was 94 % of control.

With `O=C(O)c1cc2ccc3ccccc3c2oc1=O` the T/C (dose: 100.0 mg/kg/injection, schedule: Q01DX001 (ip), vehicle: carboxymethylcellulose (CMC)) was 87 % of control, the T/C (dose: 200.0 mg/kg/injection, schedule: Q01DX001 (ip), vehicle: carboxymethylcellulose (CMC)) was 92 % of control and the T/C (dose: 400.0 mg/kg/injection, schedule: Q01DX001 (ip), vehicle: carboxymethylcellulose (CMC)) was 92 % of control.

In the case of `O=c1oc2cc(O)ccc2c2ccccc12`, the T/C [4] is reported as 98 % of control, the T/C [5] is reported as 96 % of control and the T/C [6] is reported as 102 % of control.

For `C[N+](C)(C)CCC[N+]1(C)CC2C3CCCCC3=C3CCCCC3C2C1` (configuration not stated), the T/C (dose: 5.0 mg/kg/injection, schedule: Q01DX001 (ip), vehicle: saline) was 95 % of control, the T/C (dose: 10.0 mg/kg/injection, schedule: Q01DX001 (ip), vehicle: saline) was 98 % of control and the T/C (dose: 20.0 mg/kg/injection, schedule: Q01DX001 (ip), vehicle: saline) was 101 % of control.

For `CC(=O)c1ccc(Nc2ccnc3cc(Cl)ccc23)cc1`, the T/C [9] was 109 % of control, the T/C [10] was 96 % of control and the T/C (dose: 300.0 mg/kg/injection, schedule: Q01DX001 (ip), vehicle: other) was 91 % of control.

`O=C(O)c1c(-c2ccccc2)[nH]c2ccccc2c1=O` was tested, and the T/C [4] was 88 % of control, the T/C [5] was 87 % of control and the T/C [6] was 90 % of control.

`O=C1CCC(=O)C12CCNCC2` was tested, and the T/C (dose: 100.0 mg/kg/injection, schedule: Q01DX009 (ip), vehicle: saline) was 97 % of control, the T/C (dose: 100.0 mg/kg/injection, schedule: Q04DX003 (ip), vehicle: saline) was 100 % of control and the T/C (dose: 200.0 mg/kg/injection, schedule: Q01DX009 (ip), vehicle: saline) was 104 % of control. For the same compound, the T/C (dose: 200.0 mg/kg/injection, schedule: Q04DX003 (ip), vehicle: saline) was 88 % of control and the T/C (dose: 400.0 mg/kg/injection, schedule: Q04DX003 (ip), vehicle: saline) was 107 % of control.
